Assay in all cases: inhibition of tumour cell growth, NCI panel, 48 h
In assay [1] the test system is SK-OV-3 ovarian.
Assay [2] relates to MCF7 breast.
For assay [3], the system named is HCT-116 colon.
Assay [4] relates to UACC-257 melanoma.
In assay [5] the test system is PC-3 prostate.
The test system of assay [6] is HOP-92 NSCLC.
For assay [7], the system named is K-562 leukemia.
The test system of assay [8] is HCT-15 colon.
Assay [9] has as its system KM12 colon.
Assay [10] deals with MDA-MB-231 breast.

Where “and” joins values, the source holds several entries; their conditions need not be identical. Equal values may be shown once.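 Values below derive from 48-hour exposures of cells grown in 96-well plates, with endpoints linearly interpolated between the two concentrations bracketing the appropriate inhibition level. GI50: concentration for 50% inhibition of growth. Definition used: TGI = concentration required for complete inhibition of growth.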

On to `Cc1ccnc2c1NC(=O)c1cccnc1N2C1CC1`, for which the GI50 in assay [1], in assay [2], in [3], in assay [4], in [5] and in [6] was greater than 100 µM throughout. Also, the GI50 in [7], in assay [8], in assay [9] and in assay [10] was greater than 100 µM in each case. Further, the TGI in assay [1], in assay [2], in assay [3], in [4], in [5] and in assay [6] was greater than 100 µM each time. The TGI in assay [7], in assay [8], in [9] and in assay [10] was greater than 100 µM each time.

In the case of `C#C[C@]1(O)CC[C@H]2[C@@H]3CC=C4c5nc(Nc6ccc(OC)cc6OC)sc5CC[C@]4(C)[C@H]3CC[C@@]21C`, the GI50 is 1.83 µM in assay [1]; 0.978 µM in assay [2]; 1.21 µM in assay [3]; 1.57 µM in assay [4]; 0.845 µM in assay [5]; 2.1 µM in assay [6]. Moreover, the GI50 in assay [7] was 0.525 µM; in [8], 1.3 µM; in [9], 2.07 µM; in [10], 1.26 µM. In addition, the TGI in [1] was found to be 7.02 µM; in assay [2], 2.65 µM; in assay [3], 2.7 µM; in [4] it was 4.99 µM; in assay [5], 9.02 µM; in [6] it was 7 µM. For the same compound, the TGI was 13 µM in assay [7], 4.2 µM in [8], 5.57 µM in assay [9] and 5.34 µM in [10].

As for `COc1ccc(OC)c(-c2nc3sccn3c2/C=C2/C(=O)Nc3ccccc32)c1`, the GI50 in [1] is 0.584 µM; in [2], 0.476 µM; in assay [3] it was 0.142 µM; in assay [4], 11.6 µM; in assay [5], 0.359 µM; in assay [6] it was 0.822 µM. In addition, the GI50 in [7] was 0.49 µM; in assay [8] it was 0.434 µM; in [9], 0.119 µM; in [10] it was 2.11 µM. The TGI in assay [1] is 6.36 µM; in assay [2], greater than 35.7 µM; in [3], 1.52 µM; in assay [4] it was 34.7 µM; in [5], 14.2 µM; in assay [6], 19.1 µM. Moreover, the TGI in assay [7] is greater than 100 µM; in assay [8] it was 14.8 µM; in assay [9] it was 2.06 µM; in assay [10] it was 25.3 µM.

Regarding `C/C=C(/C)C(=O)OC1C=C(CO)C(=O)C(OC(=O)/C(C)=C\C)C1C(C)C` (stereo not given), the GI50 was 2.27 µM in [1]; 0.416 µM in [2]; 0.49 µM in assay [3]; 1.28 µM in [4]; 0.599 µM in assay [5]; 0.528 µM in assay [6]. For the same compound, the GI50 in assay [7] was 0.401 µM; in [8], 0.46 µM; in assay [9], 1.45 µM; in [10], 0.751 µM. Further, the TGI worked out at 4.48 µM in assay [1]; 2.16 µM in [2]; 1.67 µM in assay [3]; 2.65 µM in assay [4]; 1.8 µM in [5]; 1.15 µM in assay [6]. For the same compound, the TGI in [7] is 19.2 µM; in [8] it was 1.86 µM; in [9], 3.02 µM; in assay [10], 1.9 µM.

As to `N#Cc1c(NC(=O)CCC(=O)O)ccc2ccccc12`, the TGI in assay [1], in [2], in assay [3], in [4], in assay [5] and in assay [6] was greater than 100 µM throughout. The TGI in [7], in assay [8], in assay [9] and in assay [10] was greater than 100 µM throughout.

Consider `CCOC(=O)C(=Cc1ccc(Br)cc1)C(=O)OCC`, for which the GI50 in assay [1] is 5.41 µM; in [2] it was 1.66 µM; in [3], 1.4 µM; in [4], 1.88 µM; in [5], 1.86 µM; in assay [6], 1.45 µM. For the same compound, the GI50 in assay [7] was 2.49 µM; in assay [8], 1.44 µM; in [9] it was 1.76 µM; in [10], 2.08 µM. Further, the TGI in assay [1] was 17 µM; in assay [2] it was 6.67 µM; in [3], 2.92 µM; in assay [4], 4.15 µM; in [5], 5.96 µM; in assay [6], 4.8 µM. Besides, the TGI in [7] was greater than 100 µM; in assay [8] it was 3.5 µM; in assay [9], 3.66 µM; in assay [10] it was 5.37 µM.

Take `NC(N)=NC(N)=NCCc1ccccc1`: the GI50 was 64.9 µM and > 100 µM in assay [1]; greater than 100 µM in assay [2]; 92.5 µM and 36.3 µM in assay [3]; > 100 µM and 97.3 µM in assay [4]; 45.3 µM and 60.3 µM in assay [5]; 1.51 µM in assay [6]. For the same compound, the GI50 was 66.6 µM and 30.8 µM in [7]; greater than 100 µM in assay [8]; greater than 100 µM in assay [9]; greater than 100 µM in [10]. Further, the TGI in [1], in assay [2], in assay [3], in [4], in [5] and in assay [6] was greater than 100 µM throughout. For the same compound, the TGI in assay [7], in assay [8], in assay [9] and in assay [10] was greater than 100 µM each time.
